Experimental data taken from patent US9321722B2, “Bis-indolic derivatives, their uses in particular as antibacterials” (UNIVERSITE JOSEPH FOURIER, priority 2011, dated 2016).
Converted amounts (≈) assume the structure as drawn.

Tests used:
Assay type in all cases: cell-based
[1] = test system: Staphylococcus capitis (CHUG-Scap4); test: MIC, Staphylococcus panel (Table I-2); details: 18 h, 4% DMSO
Method: (§1) We used the previously described protocol, with subtle modifications. The microdilution method recommended by the Clinical and Laboratory Standard Institute [M07-A9, Vol. 32, N^o 2] was used. The activity of bis-indolic compounds was tested against 35 bacterial strains belonging to 12 different Staphylococcus species.
(§2) Bacterial inocula were prepared in Mueller Hinton broth (MH2, BioMerieux, Marcy L'Etoile, France). They were dispensed in 96 well microtiter plates (5×10^5 CFU/ml of final inoculum, 192 μL per well). Indolic compounds diluted in pure DMSO (8 μL per well, concentrated 25 times) were added to the wells as to obtain two-fold serial concentrations (0.5-32 mg/L of final concentrations). The final concentration of DMSO was 4% in each well.
(§3) To avoid cross-contaminations in microtiter plates, one row was left blank between each strain tested. Microplates were incubated for 18 h at 37° C. in ambient air or at 37° C. in 5% CO2 enriched atmosphere for fastidious species. Then MICs were read visually and, in case of visual reading difficulties, confirmed using a spectrophotometer at a wavelength of 630 nm (BioTek® EL808 Absorbance Microplate Reader). MICs corresponded to the minimum bis-indolic compound concentration that allowed complete visual growth inhibition of bacteria. Drug-free cultures served as growth controls.
(§4) Coagulase-negative Staphylococcus strains included three reference strains purchased from CRBIP: a methicillin-susceptible S. epidermidis strain (ATCC 12228), a methicillin-resistant S. epidermidis strain (ATCC 49461), and a methicillin-susceptible S. sciuri strain (ATCC 29061). We also used clinical strains belonging to the following coagulase-negative Staphylococcus species: S. auricularis (two strains), S. warneri (five strains), S. capitis (five strains), S. haemolyticus (four strains), S. hominis (seven strains), S. cohnii (two strains), and S. saprophyticus, S. caprae and S. simulans (one strain each). Identification of the clinical strains was obtained using VITEK® 2 System (Biomérieux).

[2] = test system: Staphylococcus hominis (CHUG-Shom7); test: MIC, Staphylococcus panel (Table I-2); details: 18 h, 4% DMSO
Method: as §1, §2, §3, §4

[3] = test system: Staphylococcus sciuri ATCC 29061; test: MIC, Staphylococcus panel (Table I-2); details: Mammaliicoccus sciuri, ATCC29061, 18 h, 4% DMSO
Method: as §1, §2, §3, §4

[4] = test system: Staphylococcus hominis (CHUG-Shom4); test: MIC, Staphylococcus panel (Table I-2); details: 18 h, 4% DMSO
Method: as §1, §2, §3, §4

[5] = test system: Staphylococcus cohnii (CHUG-Scoh2); test: MIC, Staphylococcus panel (Table I-2); details: 18 h, 4% DMSO
Method: as §1, §2, §3, §4

[6] = test system: Staphylococcus haemolyticus (CHUG-Scap6); test: MIC, Staphylococcus panel (Table I-2); details: 18 h, 4% DMSO
Method: as §1, §2, §3, §4

[7] = test system: Staphylococcus caprae (CHUG-Scapra1); test: MIC, Staphylococcus panel (Table I-2); details: 18 h, 4% DMSO
Method: as §1, §2, §3, §4

[8] = test system: Staphylococcus haemolyticus (CHUG-Scap5); test: MIC, Staphylococcus panel (Table I-2); details: 18 h, 4% DMSO
Method: as §1, §2, §3, §4

[9] = test system: Staphylococcus warneri (CHUG-Swar6); test: MIC, Staphylococcus panel (Table I-2); details: 18 h, 4% DMSO
Method: as §1, §2, §3, §4

[10] = test system: Staphylococcus epidermidis ATCC 49461; test: MIC, Staphylococcus panel (Table I-2); details: ATCC49461, 18 h, 4% DMSO
Method: as §1, §2, §3, §4

[11] = test system: Staphylococcus hominis (CHUG-Shom1); test: MIC, Staphylococcus panel (Table I-2); details: 18 h, 4% DMSO
Method: as §1, §2, §3, §4

[12] = test system: Staphylococcus warneri (CHUG-Swar4); test: MIC, Staphylococcus panel (Table I-2); details: 18 h, 4% DMSO
Method: as §1, §2, §3, §4

[13] = test system: Staphylococcus saprophyticus (CHUG-Ssap2); test: MIC, Staphylococcus panel (Table I-2); details: 18 h, 4% DMSO
Method: as §1, §2, §3, §4

[14] = test system: Staphylococcus epidermidis ATCC 12228; test: MIC, Staphylococcus panel (Table I-2); details: ATCC12228, 18 h, 4% DMSO
Method: as §1, §2, §3, §4

[15] = test system: Staphylococcus cohnii (CHUG-Scoh1) (MRSA); test: MIC, Staphylococcus panel (Table I-2); details: 18 h, 4% DMSO
Method: as §1, §2, §3, §4

[16] = test system: Staphylococcus hominis (CHUG-Shom5); test: MIC, Staphylococcus panel (Table I-2); details: 18 h, 4% DMSO
Method: as §1, §2, §3, §4

[17] = test system: Staphylococcus haemolyticus (CHUG-Scap4); test: MIC, Staphylococcus panel (Table I-2); details: 18 h, 4% DMSO
Method: as §1, §2, §3, §4

[18] = test system: Staphylococcus simulans (CHUG-Ssim1); test: MIC, Staphylococcus panel (Table I-2); details: 18 h, 4% DMSO
Method: as §1, §2, §3, §4

[19] = test system: Staphylococcus auricularis (CHUG-Saur3); test: MIC, Staphylococcus panel (Table I-2); details: 18 h, 4% DMSO
Method: as §1, §2, §3, §4

[20] = test system: Staphylococcus haemolyticus (CHUG-Shae1); test: MIC, Staphylococcus panel (Table I-2); details: 18 h, 4% DMSO
Method: as §1, §2, §3, §4

[21] = test system: Staphylococcus hominis (CHUG-Shom6); test: MIC, Staphylococcus panel (Table I-2); details: 18 h, 4% DMSO
Method: as §1, §2, §3, §4

[22] = test system: Staphylococcus capitis (CHUG-Scap6); test: MIC, Staphylococcus panel (Table I-2); details: 18 h, 4% DMSO
Method: as §1, §2, §3, §4

[23] = test system: HCT116 (human colon tumor); test: In vitro cytotoxicity; details: HCT-116, HCT116, in DMSO, duplicate
[24] = test system: Staphylococcus aureus MRSA 252; test: MIC, Staphylococcus panel (Table I-2); details: 18 h, 4% DMSO
Method: as §1, §2, §3
(§5) We used four Staphylococcus aureus strains. Two reference strains were provided by the French reference center for Staphylococcus spp. (Lyon, France), including one methicillin-susceptible (MSSA 476) and one methicillin-resistant (MRSA 252) S. aureus strains. The two remaining S. aureus strains were purchased from the CRBIP (Centre de Ressources Biologiques de l'Institut Pasteur): a vancomycin-intermediate strain (ATCC 106414) and a S. aureus strain (SA-1199B) resistant to fluoroquinolones due to overexpression of the NorA multidrug efflux pump.

[25] = test system: Staphylococcus aureus MSSA 476; test: MIC, Staphylococcus panel (Table I-2); details: 18 h, 4% DMSO
Method: as §1, §2, §3, §5

[26] = test system: Staphylococcus aureus SA-1199B (NorA); test: MIC, Staphylococcus panel (Table I-2); details: 18 h
Method: as §1, §2, §3, §5

[27] = test system: Staphylococcus aureus ATCC 106414 (VISA); test: MIC, Staphylococcus panel (Table I-2); details: 18 h, 4% DMSO
Method: as §1, §2, §3, §5

Compound	MIC [1]	MIC [2]	MIC [3]	MIC [4]	MIC [5]	MIC [6]	MIC [7]	MIC [8]	MIC [9]	MIC [10]	MIC [11]	MIC [12]	MIC [13]	MIC [14]	MIC [15]	MIC [16]	MIC [17]	MIC [18]	MIC [19]	MIC [20]	other results
CC(C)(C)OC(=O)NCC(NC(=O)C(=O)c1c[nH]c2ccc(Br)cc12)c1c[nH]c2ccc(Br)cc12 (stereo not drawn) [Compound 4, tert-Butyl(2-(5-bromo-1H-indol-3-yl)-2-(2-(5-bromo-1H-indol-3-yl)-2-oxoacetamido)ethyl) carbamate]	1 µg/mL (≈ 1.65 µM)	1 µg/mL (≈ 1.65 µM)	2 µg/mL (≈ 3.31 µM)	1 µg/mL (≈ 1.65 µM)	2 µg/mL (≈ 3.31 µM)	2 µg/mL (≈ 3.31 µM)	1 µg/mL (≈ 1.65 µM)	1 µg/mL (≈ 1.65 µM)	1 µg/mL (≈ 1.65 µM)	1 µg/mL (≈ 1.65 µM)	2 µg/mL (≈ 3.31 µM)	1 µg/mL (≈ 1.65 µM)	1 µg/mL (≈ 1.65 µM)	1 µg/mL (≈ 1.65 µM)	1 µg/mL (≈ 1.65 µM)	1 µg/mL (≈ 1.65 µM)	2 µg/mL (≈ 3.31 µM)	1 µg/mL (≈ 1.65 µM)	1 µg/mL (≈ 1.65 µM)	1 µg/mL (≈ 1.65 µM)	MIC [21]: 1 µg/mL (≈ 1.65 µM); MIC [22]: 1 µg/mL (≈ 1.65 µM); IC50 [23]: 4.55 µM; MIC [24]: 1 µg/mL (≈ 1.65 µM); MIC [25]: 1 µg/mL (≈ 1.65 µM); MIC [26]: 1 µg/mL (≈ 1.65 µM); MIC [27]: 1 µg/mL (≈ 1.65 µM)
CC(NC(=O)C(=O)c1c[nH]c2ccc(Br)cc12)c1c[nH]c2ccc(Br)cc12 (stereo not drawn) [Compound 5, 2-(5-Bromo-1H-indol-3-yl)-N-(1-(5-bromo-1H-indol-3-yl)ethyl)-2-oxoacetamide]	1 µg/mL (≈ 2.04 µM)	2 µg/mL (≈ 4.09 µM)	4 µg/mL (≈ 8.18 µM)	2 µg/mL (≈ 4.09 µM)	2 µg/mL (≈ 4.09 µM)	4 µg/mL (≈ 8.18 µM)	2 µg/mL (≈ 4.09 µM)	4 µg/mL (≈ 8.18 µM)	2 µg/mL (≈ 4.09 µM)	2 µg/mL (≈ 4.09 µM)	4 µg/mL (≈ 8.18 µM)	2 µg/mL (≈ 4.09 µM)	2 µg/mL (≈ 4.09 µM)	2 µg/mL (≈ 4.09 µM)	2 µg/mL (≈ 4.09 µM)	1 µg/mL (≈ 2.04 µM)	4 µg/mL (≈ 8.18 µM)	2 µg/mL (≈ 4.09 µM)	1 µg/mL (≈ 2.04 µM)	4 µg/mL (≈ 8.18 µM)	MIC [21]: 2 µg/mL (≈ 4.09 µM); MIC [22]: 1 µg/mL (≈ 2.04 µM); IC50 [23]: 10.1 µM; MIC [24]: 2 µg/mL (≈ 4.09 µM); MIC [25]: 2 µg/mL (≈ 4.09 µM); MIC [26]: 2 µg/mL (≈ 4.09 µM); MIC [27]: 1 µg/mL (≈ 2.04 µM)
